Data as given in US7470702B2, “Benzimidazoles” (Merck Patent GmbH, priority 2003, dated 2008).

biological target: TIE-2 (Homo sapiens, UniProt Q02763); experiment: Inhibition of TIE-2 (flashplate kinase assay, poly(Glu, Tyr) phosphorylation, 33P-ATP); type: biochemical
Experimental: The TIE-2 tests can be carried out, for example, analogously to the methods indicated in WO 02/44156.
The assay determines the inhibiting activity of the substances to be tested in the phosphorylation of the substrate poly(Glu, Tyr) by Tie-2 kinase in the presence of radioactive ^33P-ATP. The phosphorylated substrate binds to the surface of a “flashplate” microtitre plate during the incubation time. After removal of the reaction mixture, the microtitre plate is washed a number of times and the radioactivity on its surface is subsequently measured. An inhibiting effect of the substances to be measured results in lower radioactivity compared with an undisturbed enzymatic reaction.

TIE-2, sequence (Q02763 23-1124, species assumed): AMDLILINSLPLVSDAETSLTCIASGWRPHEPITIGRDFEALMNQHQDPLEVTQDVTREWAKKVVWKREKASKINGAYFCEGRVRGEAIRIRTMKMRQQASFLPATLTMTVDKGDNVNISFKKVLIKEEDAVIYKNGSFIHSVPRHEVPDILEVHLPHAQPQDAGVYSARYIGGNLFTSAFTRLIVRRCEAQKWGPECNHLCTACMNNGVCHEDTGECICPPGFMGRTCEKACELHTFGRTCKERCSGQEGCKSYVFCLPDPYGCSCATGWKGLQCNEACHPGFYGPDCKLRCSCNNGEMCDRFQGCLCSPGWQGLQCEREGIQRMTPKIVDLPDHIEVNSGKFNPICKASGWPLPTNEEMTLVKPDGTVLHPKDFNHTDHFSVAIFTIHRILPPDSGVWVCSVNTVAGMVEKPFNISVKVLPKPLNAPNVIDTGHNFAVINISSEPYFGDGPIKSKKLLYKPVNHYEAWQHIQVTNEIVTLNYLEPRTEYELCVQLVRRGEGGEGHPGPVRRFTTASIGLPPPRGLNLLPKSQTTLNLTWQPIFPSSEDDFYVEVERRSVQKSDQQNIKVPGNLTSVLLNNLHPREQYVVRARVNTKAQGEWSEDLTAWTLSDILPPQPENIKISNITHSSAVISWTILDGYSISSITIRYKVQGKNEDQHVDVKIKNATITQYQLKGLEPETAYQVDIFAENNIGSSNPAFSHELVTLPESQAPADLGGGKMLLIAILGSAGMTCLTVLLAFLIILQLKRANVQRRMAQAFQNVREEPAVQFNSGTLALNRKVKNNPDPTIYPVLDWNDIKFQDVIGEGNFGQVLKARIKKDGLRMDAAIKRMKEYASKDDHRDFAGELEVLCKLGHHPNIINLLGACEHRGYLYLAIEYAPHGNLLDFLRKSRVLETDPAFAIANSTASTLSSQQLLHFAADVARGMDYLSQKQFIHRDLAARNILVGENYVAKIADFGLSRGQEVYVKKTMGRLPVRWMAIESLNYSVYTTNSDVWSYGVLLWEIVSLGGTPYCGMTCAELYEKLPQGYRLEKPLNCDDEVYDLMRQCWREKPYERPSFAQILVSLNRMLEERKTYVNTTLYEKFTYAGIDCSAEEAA

Row | SMILES | IC50 [nM]
1 | Cc1ccc2nc(Nc3ccc(Oc4ccncc4)cc3)[nH]c2c1 [(3), (6-Methyl-1H-benzimidazol-2-yl)[4-(pyridin-4-yloxy)phenyl]amine] | 4000
2 | FC(F)(F)c1cc(Cl)c2nc(Nc3ccc(Oc4ccncc4)cc3)[nH]c2c1 [(14), (4-Chloro-6-trifluoromethyl-1H-benzimidazol-2-yl)[4-(pyridin-4-yloxy)phenyl]amine] | 900
3 | FC(F)(F)c1cc(Br)c2nc(Nc3ccc(Oc4ccncc4)cc3)[nH]c2c1 [(5), (4-Bromo-6-trifluoromethyl-1H-benzimidazol-2-yl)[4-(pyridin-4-yloxy)phenyl]amine] | 500
